Key:
αA domain from CD11a = target: T1, αA domain from CD11a (Homo sapiens, UniProt P20701); details: binding at the strand-F/α7 interface; reference 84; cited from earlier work
T1 sequence (P20701 156-327 limits assumed): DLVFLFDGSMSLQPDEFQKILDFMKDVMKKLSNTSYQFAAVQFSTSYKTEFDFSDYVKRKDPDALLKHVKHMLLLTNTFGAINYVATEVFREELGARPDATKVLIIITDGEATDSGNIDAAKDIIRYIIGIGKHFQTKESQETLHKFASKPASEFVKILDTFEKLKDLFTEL

physiologic ligand = experiment: ligand binding to membrane-bound integrin

fold increase of binding (physiologic ligand)	Molecule	effect of binding on integrin activation state (αA domain from CD11a)
–	CC[C@H](C)C(=O)O[C@H]1C[C@@H](C)C=C2C=C[C@H](C)[C@H](CC[C@@H]3C[C@@H](O)CC(=O)O3)[C@H]21 [lovastatin]	locks this integrin in the inactive state
1.5 to 2 fold	αVβ3 integrin mutant D^126D^127/A^126A^127, membrane-bound (from UniProt P06756 31-1048; P05106 27-788) (receptor)	–
